For orientation: IC50 means the concentration needed to halve the response being measured.

Holding throughout (format): cell-based
One test has as its system HT29. The test can be described thus: Cell growth inhibition experiment (SRB), HT29. To be noted: Homo sapiens, HT-29, incubated for 96 hours, read-out: IC50 (μM) of cancer cell lines HT29. The method, then: (§1) The 4-(aryl)-N-(2-alkoxythieno[3,2-b]pyrazin-3-yl)-piperazin-1-carboxamide derivative compounds synthesized according to Examples 1 to 27 of the present invention were treated with various human tissue-derived cancer cell lines cultured according to Experimental Example 1, and thus the inhibitory effect of the growth of human cancer cells was confirmed. The cell growth inhibition experiment was conducted using sulforhodamine B (SRB) technique (Skehan et al., J. National Cancer Institute, 1990, 82: 1107-1112). Specifically, each cell line was seeded in a 96-well plate at a density of 2 to 3×10^3 cells/well, cultured overnight, and then treated with the 4-(aryl)-N-(2-alkoxythieno[3,2-b]pyrazin-3-yl)-piperazin-1-carboxamide derivative compounds of the present invention. The experiment was repeated 3 times for each compound. Cells treated with each compound were additionally incubated for 96 hours, fixed with 10% trichloroacetic acid (TCA), and then left at 4° C. for 1 hour. The resultant was washed 3 times with distilled water. Thereafter, each cell was treated with 0.4% sulforhodamine B dissolved in 1% acetic acid, stained for 30 minutes, and then washed 4 times with 1% acetic acid. The resultant was dried in the air. After shaking the resultant in Tris solution (10 mM) for 5 minutes, the absorbance was measured at 530 nm using a Benchmark Plus Microplate reader (Bio-Rad Laboratories, Hercules, Calif.).
(§2) In order to convert the OD530 value to the number of viable cells per each well, the measured OD530 value was compared to the standard OD530-vs.-cell number curve of each cell line. The percent survival was calculated using the following formula: % survival=Nlive cells(test)/Nlive cells(control)×100
(§3) IC50 values were calculated by nonlinear regression analysis.

The test system of test [1] is UMRC2 (kidney cancer) cell line. In words: Cell growth inhibition experiment (SRB), UMRC2. To be noted: Homo sapiens, incubated for 96 hours, read-out: IC50 (μM) of cancer cell lines UMRC2. The method, then: (§4) The cell lines below were used in order to confirm the efficacy of the compounds synthesized in Examples 1 to 27. Human PANC-1 (pancreatic cancer) and MDA-MB-231 (breast cancer) cell lines were obtained from American Type Culture Collection (ATCC; Manassas, Va.); and HN31 (head and neck cancer) and UMRC2 (kidney cancer) cell lines were secured from the United States National Institutes of Health (Bethesda, Md.). The MDA-MB-231, UMRC2, HN31, and PANC-1 cell lines were cultured in Dulbecco modified Eagle medium (DMEM) containing FBS (10%), HEPES (10 mM), penicillin (100 U/mL), and streptomycin (100 μg/mL). All cell lines were cultured in an incubator (37° C., 5% CO2).
as §1, §2, §3

The subject of the next test is HEK293. In words: Cell growth inhibition experiment (SRB), HEK293. To be noted: Homo sapiens, incubated for 96 hours, read-out: IC50 (μM) of cancer cell lines HEK293. How it is done:
as §1, §2, §3

Another test has as its system HUVEC. In words: Cell growth inhibition experiment (SRB), HUVEC. To be noted: Homo sapiens, incubated for 96 hours, read-out: IC50 (μM) of cancer cell lines HUVEC. The method, then: as §1, §2, §3
The subject of test [2] is PANC-1 (pancreatic cancer) cell line. The test can be described thus: Cell growth inhibition experiment (SRB), PANC-1. Particulars: Homo sapiens, incubated for 96 hours, read-out: IC50 (μM) of cancer cell lines PANC-1. How it is done: as §4, §1, §2, §3
The subject of test [3] is HN31 (head and neck cancer) cell line. The test can be described thus: Cell growth inhibition experiment (SRB), HN31. Particulars: Homo sapiens, incubated for 96 hours, read-out: IC50 (μM) of cancer cell lines HN31. The method, then:
as §4, §1, §2, §3

Test [4] concerns MDA-MB-231 (breast cancer) cell line. In words: Cell growth inhibition experiment (SRB), MDA-MB-231. To be noted: Homo sapiens, incubated for 96 hours, read-out: IC50 (μM) of cancer cell lines MDA-MB-231. The method, then:
as §4, §1, §2, §3

A further test concerns SK-OV-3. The test can be described thus: Cell growth inhibition experiment (SRB), SK-OV-3. Particulars: Homo sapiens, incubated for 96 hours, read-out: IC50 (μM) of cancer cell lines SK-OV-3. How it is done:
as §1, §2, §3

The test system of a further test is A549. In words: Cell growth inhibition experiment (SRB), A549. To be noted: Homo sapiens, incubated for 96 hours, read-out: IC50 (μM) of cancer cell lines A549. The method, then: as §1, §2, §3

For `COc1cc(OC)cc(N2CCN(C(=O)Nc3nc4sccc4nc3OC)CC2)c1` [Example 10, 4-(3,5-dimethoxyphenyl)-N-(2-methoxythieno[3,2-b]pyrazin-3-yl)piperazin-1-carboxamide], the IC50 is 0.27 µM with HT29; 0.03 µM in [1]; 0.56 µM with HEK293; 0.06 µM in the test on HUVEC; 0.38 µM in [2]; 0.18 µM in [3]. The results for the IC50 (in test [4]; with SK-OV-3; with A549) were 0.02 µM, 0.23 µM and 1.14 µM, respectively.
In the case of `CC(C)Oc1nc2cc(Cl)sc2nc1NC(=O)N1CCN(c2cc(F)cc(F)c2)CC1` [Example 9, N-(6-chloro-2-isopropoxythieno[3,2-b]pyrazin-3-yl)-4-(3,5-difluorophenyl)piperazin-1-carboxamide], the IC50 (in the test with HT29; in test [1]; with HEK293; with HUVEC; in test [2]; in test [3]) was under 2.5 µM throughout. Further, the IC50 (in test [4]; in the test on SK-OV-3; in the test with A549) was under 2.5 µM each time.
Take `COc1nc2cc(Cl)sc2nc1NC(=O)N1CCN(c2cc(C)cc(C)c2)CC1` [Example 2, N-(6-chloro-2-methoxythieno[3,2-b]pyrazin-3-yl)-4-(3,5-dimethylphenyl)piperazin-1-carboxamide]: the IC50 in the test with HT29 amounted to 0.62 µM; in [1] it was 0.08 µM; in the test on HEK293, 0.93 µM; in the test with HUVEC, 0.91 µM; in [2], 0.95 µM; in test [3], 0.99 µM. In addition, the IC50 in [4] was 0.06 µM; with SK-OV-3, 0.82 µM; with A549 it was under 2.5 µM.
`COc1nc2ccsc2nc1NC(=O)N1CCN(c2cc(F)cc(F)c2)CC1` [Example 12, 4-(3,5-difluorophenyl)-N-(2-methoxythieno[3,2-b]pyrazin-3-yl)piperazin-1-carboxamide]: the IC50 came to 0.3 µM in the test with HT29; 0.04 µM in [1]; 0.55 µM with HEK293; 0.07 µM in the test with HUVEC; 0.24 µM in [2]; 0.33 µM in test [3]. Moreover, the figures for the IC50 (in [4]; in the test with SK-OV-3; in the test with A549) were 0.05 µM, 0.29 µM and 1.28 µM, respectively.
`CCOc1nc2cc(Cl)sc2nc1NC(=O)N1CCN(c2cc(F)cc(F)c2)CC1` [Example 6, N-(6-chloro-2-ethoxythieno[3,2-b]pyrazin-3-yl)-4-(3,5-difluorophenyl)piperazin-1-carboxamide]: the IC50 in the test with HT29 is under 2.5 µM; in test [1], 1.21 µM; in the test with HEK293 it was under 2.5 µM; with HUVEC, under 2.5 µM; in test [2], 1.98 µM; in test [3] it was 2.1 µM. Besides, the values for the IC50 (in test [4]; with SK-OV-3; in the test with A549) were 1.13 µM, under 2.5 µM and under 2.5 µM, respectively.
On to `COc1cc(F)cc(N2CCN(C(=O)Nc3nc4sccc4nc3OC)CC2)c1` [Example 22, 4-(3-fluoro-5-methoxyphenyl)-N-(2-methoxythieno[3,2-b]pyrazin-3-yl)piperazin-1-carboxamide], for which the IC50 in the test with HT29 came to 1.12 µM; in test [1], 0.21 µM; in the test on HEK293, 1.12 µM; in the test on HUVEC, 1.36 µM; in [2], 0.63 µM; in [3], 0.45 µM. In addition, the figures for the IC50 (in test [4]; in the test with SK-OV-3; in the test on A549) were 0.52 µM, 1.36 µM and 2.21 µM, respectively.
As to `COc1nc2ccsc2nc1NC(=O)N1CCN(c2cc(F)cc(C(F)(F)F)c2)CC1` [Example 27, 4-(3-fluoro-5-(trifluoromethyl)phenyl)-N-(2-methoxythieno[3,2-b]pyrazin-3-yl)piperazin-1-carboxamide], the IC50 (in the test on HT29; in [1]; in the test with HEK293; with HUVEC; in test [2]; in test [3]) was under 2.5 µM each time. The IC50 (in test [4]; in the test with SK-OV-3; in the test on A549) was under 2.5 µM each time.
Consider `Cc1cc(C)cc(N2CCN(C(=O)Nc3nc4sc(Cl)cc4nc3OC(C)C)CC2)c1` [Example 8, N-(6-chloro-2-isopropoxythieno[3,2-b]pyrazin-3-yl)-4-(3,5-dimethylphenyl)piperazin-1-carboxamide], for which the IC50 (with HT29; in [1]; in the test with HEK293; in the test on HUVEC; in test [2]; in test [3]) was under 2.5 µM each time. Further, the IC50 (in test [4]; with SK-OV-3; with A549) was under 2.5 µM in each case.
Regarding `COc1cc(OC)cc(N2CCN(C(=O)Nc3nc4sc(Cl)cc4nc3OC(C)C)CC2)c1` [Example 7, N-(6-chloro-2-isopropoxythieno[3,2-b]pyrazin-3-yl)-4-(3,5-dimethoxyphenyl)piperazin-1-carboxamide], the IC50 (in the test on HT29; in [1]; with HEK293; in the test on HUVEC; in test [2]; in test [3]) was under 2.5 µM throughout. The IC50 (in test [4]; in the test on SK-OV-3; in the test with A549) was under 2.5 µM in each case.
For the molecule `CCOc1nc2ccsc2nc1NC(=O)N1CCN(c2cc(F)cc(F)c2)CC1` [Example 15, 4-(3,5-difluorophenyl)-N-(2-ethoxythieno[3,2-b]pyrazin-3-yl)piperazin-1-carboxamide], the IC50 with HT29 was under 2.5 µM; in [1], 0.25 µM; with HEK293, under 2.5 µM; in the test on HUVEC it was under 2.5 µM; in [2] it was 1.12 µM; in test [3], 0.78 µM. Moreover, the IC50 in test [4] is 0.25 µM; in the test on SK-OV-3 it was under 2.5 µM; in the test on A549 it was under 2.5 µM.
In the case of `COc1nc2cc(Cl)sc2nc1NC(=O)N1CCN(c2cc(F)cc(F)c2)CC1` [Example 3, N-(6-chloro-2-methoxythieno[3,2-b]pyrazin-3-yl)-4-(3,5-difluorophenyl)piperazin-1-carboxamide], the IC50 came out at 0.53 µM with HT29; 0.06 µM in test [1]; 0.87 µM with HEK293; 0.54 µM with HUVEC; 0.56 µM in [2]; 0.71 µM in [3]. The results for the IC50 (in test [4]; with SK-OV-3; with A549) were 0.04 µM, 0.85 µM and 2.11 µM, respectively.
Consider `COc1nc2ccsc2nc1NC(=O)N1CCN(c2cc(C)cc(F)c2)CC1` [Example 23, 4-(3-fluoro-5-methylphenyl)-N-(2-methoxythieno[3,2-b]pyrazin-3-yl)piperazin-1-carboxamide], for which the IC50 was 0.28 µM in the test on HT29; under 2.5 µM in test [1]; 0.35 µM in the test with HEK293; 0.45 µM in the test with HUVEC; 0.58 µM in test [2]; 0.28 µM in test [3]. In addition, the results for the IC50 (in test [4]; in the test with SK-OV-3; with A549) were 0.36 µM, 0.36 µM and 0.63 µM, respectively.
On to `COc1nc2ccsc2nc1NC(=O)N1CCN(c2cc(OC(F)(F)F)cc(C(F)(F)F)c2)CC1` [Example 20, N-(2-methoxythieno[3,2-b]pyrazin-3-yl)-4-(3-(trifluoromethoxy)-5-(trifluoromethyl)phenyl)piperazin-1-carboxamide], for which the IC50 was 0.62 µM in the test with HT29; under 2.5 µM in test [1]; 0.12 µM in the test on HEK293; 0.21 µM in the test on HUVEC; 0.36 µM in test [2]; 0.36 µM in [3]. Moreover, the IC50 turned out to be 0.25 µM in test [4], 0.22 µM with SK-OV-3 and 0.15 µM with A549.

For the origin of these results see patent publication US10059721B2, “Substituted thieno[3,2-b]pyrazines for inhibiting cancer cell proliferation and inducing cancer cell apoptosis” (DONGGUK UNIVERSITY INDUSTRY-ACADEMIC COOPERATION FOUNDATION, priority 2014, dated 2018).
